≈ marks a conversion by molar mass, not a printed value. Like-named read-outs stand apart in the source and are kept apart here.

Results on 6 molecules are retold here after patent publication US20080114080A1, “Compositions and Methods for the Treatment of Cystic Fibrosis and other Pulmonary Disorders” (priority 2006, published 2008).

For data set [1] the following is noted: cited from earlier work.
The conditions of data set [2]: recent report; cited from earlier work.
Data set [3] addresses mutant forms (ΔF508) of CFTR (Homo sapiens, UniProt P13569, DEL508-508). The note with it: cited from earlier work.
Data set [4] concerns rat colon epithelial cells. The note with it: cited from earlier work.
Data set [5] deals with chemokine receptors (CXCR2/b). Description: Cl- transport/efflux in Calu-3 cells, IL-8 via chemokine receptors. Format: cell-based, human.
The next data set concerns the target T1, C5aR (CD88) (Homo sapiens, UniProt P21730).
T1 construct: endogenous in cells; host or cells: Calu-3 (ATCC HTB-55)
T1 sequence (P21730 1-350): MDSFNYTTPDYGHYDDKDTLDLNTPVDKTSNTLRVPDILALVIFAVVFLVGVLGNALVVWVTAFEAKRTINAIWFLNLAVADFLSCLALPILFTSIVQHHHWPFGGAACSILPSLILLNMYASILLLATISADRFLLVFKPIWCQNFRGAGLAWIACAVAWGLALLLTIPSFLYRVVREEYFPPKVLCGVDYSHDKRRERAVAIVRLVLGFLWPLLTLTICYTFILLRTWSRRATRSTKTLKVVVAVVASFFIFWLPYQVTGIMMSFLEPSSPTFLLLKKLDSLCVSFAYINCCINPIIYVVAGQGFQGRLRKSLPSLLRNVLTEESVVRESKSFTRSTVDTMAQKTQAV
Description: Cl- efflux in Calu-3 cells, C5a via C5aR. Format: cell-based.

The subject of data set [6] is adenylyl cyclase activity. Description: adenylyl cyclase activity in Calu-3 cells. Format: cell-based, human. The note with it: FIG. 6.

Chain of mutant forms (ΔF508) of CFTR (P13569 with tags, fused parts or gaps DEL508-508): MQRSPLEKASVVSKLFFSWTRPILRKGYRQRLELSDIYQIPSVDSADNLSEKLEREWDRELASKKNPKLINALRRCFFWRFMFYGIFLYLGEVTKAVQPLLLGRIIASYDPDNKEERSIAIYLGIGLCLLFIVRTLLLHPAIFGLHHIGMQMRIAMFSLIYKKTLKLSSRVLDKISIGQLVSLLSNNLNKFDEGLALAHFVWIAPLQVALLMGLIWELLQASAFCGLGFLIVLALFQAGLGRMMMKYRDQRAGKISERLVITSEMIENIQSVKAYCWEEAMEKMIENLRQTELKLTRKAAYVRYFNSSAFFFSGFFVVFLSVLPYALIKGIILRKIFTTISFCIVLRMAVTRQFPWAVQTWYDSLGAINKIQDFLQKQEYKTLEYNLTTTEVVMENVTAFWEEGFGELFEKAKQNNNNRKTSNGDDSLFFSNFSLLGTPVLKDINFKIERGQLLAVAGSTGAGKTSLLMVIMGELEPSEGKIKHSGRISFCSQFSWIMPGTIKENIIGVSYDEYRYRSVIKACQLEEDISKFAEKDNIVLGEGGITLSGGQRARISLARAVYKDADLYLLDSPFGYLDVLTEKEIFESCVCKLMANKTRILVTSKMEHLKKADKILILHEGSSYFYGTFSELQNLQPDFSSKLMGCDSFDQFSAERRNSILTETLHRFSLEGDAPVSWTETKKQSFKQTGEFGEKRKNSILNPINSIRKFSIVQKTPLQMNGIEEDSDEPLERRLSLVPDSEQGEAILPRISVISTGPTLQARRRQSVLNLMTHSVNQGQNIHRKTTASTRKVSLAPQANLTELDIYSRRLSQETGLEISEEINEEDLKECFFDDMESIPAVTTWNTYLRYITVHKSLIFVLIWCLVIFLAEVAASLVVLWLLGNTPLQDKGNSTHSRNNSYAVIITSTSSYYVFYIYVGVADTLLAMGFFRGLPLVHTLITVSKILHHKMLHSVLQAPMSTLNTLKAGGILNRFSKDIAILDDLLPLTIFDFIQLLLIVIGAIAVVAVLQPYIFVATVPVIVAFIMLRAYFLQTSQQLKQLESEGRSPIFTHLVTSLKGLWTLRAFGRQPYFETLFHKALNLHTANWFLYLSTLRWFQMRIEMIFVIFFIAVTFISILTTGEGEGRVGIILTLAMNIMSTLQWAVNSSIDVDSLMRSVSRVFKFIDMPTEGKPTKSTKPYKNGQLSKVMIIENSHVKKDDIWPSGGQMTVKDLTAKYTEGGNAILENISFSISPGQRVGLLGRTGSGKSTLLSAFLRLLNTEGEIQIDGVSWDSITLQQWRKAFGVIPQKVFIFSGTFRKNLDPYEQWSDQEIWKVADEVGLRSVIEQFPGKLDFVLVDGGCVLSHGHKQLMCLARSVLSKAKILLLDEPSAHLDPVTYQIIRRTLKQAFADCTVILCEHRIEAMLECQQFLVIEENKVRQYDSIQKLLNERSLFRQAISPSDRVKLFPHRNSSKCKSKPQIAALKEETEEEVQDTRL

As to `CNc1ccc2oc(C[C@H]3O[C@@]4(CC[C@H]3C)O[C@H]([C@H](C)C(=O)c3ccc[nH]3)[C@H](C)C[C@H]4C)nc2c1C(=O)O` [A23187, calcimycin], the Solubility (commonly how much of the substance goes into solution per volume) in data set [1] (in DMSO) was 50 mg/mL (≈ 95.5 mM); in data set [1] (in EtOH), 5 mg/mL (≈ 9.55 mM).

Take `CCCn1c(=O)c2[nH]c(C3CCCC3)nc2n(CCC)c1=O` [CPX, 8-cyclo-pentyl-1,3-dipropylxanthine]: the “efficacy in treating mild cystic fibrosis” value in data set [2] was “somewhat effective”.

Consider `CC(C)Cn1c(=O)n(C)c(=O)c2[nH]cnc21` [IBMX], for which, in data set [3], the “activity of mutant CFTR, chloride transport function” value is given as “able to stimulate some activity”.

On to `O=c1c(O)c(-c2ccc(O)c(O)c2)oc2cc(O)cc(O)c12` [quercetin], for which, in data set [4], the Cl- secretion entry is “induce Cl^− secretion”.

For the molecule “IL-8: chemokine released on activation of innate immunity, activates CXCR2”, in data set [5] (Calu-3 cells, via CXCR2/b, FIG. 9), the “basal levels of Cl- transport” value is “inhibits”. The “cAMP dependent Cl- efflux” value in data set [5] (FIG. 10) is recorded as “inhibits”.

B1: C5a: proinflammatory anaphylatoxin peptide generated during complement activation, acts through C5aR (protein, UniProt P01031 678-751, looked up)
C5a anaphylatoxin: TLQKKIEEIAAKYKHSVVKKCCYDGACVNNDETCEQRAARISLGPRCIKAFTECCVVASQLRANISHKDMQLGR
modifications: C5a anaphylatoxin
On to B1, for which the “basal Cl- efflux” value with C5aR (CD88) (Calu-3 cells, via C5aR (CD88), FIG. 7) is “inhibits”. Also, the “cAMP dependent Cl- efflux” value in the data set with C5aR (CD88) (FIG. 8) is reported as “inhibits”. Besides, the adenylyl cyclase activity entry in data set [6] is listed as “inhibits”.
